Laboratory results reported in US4959353A, “Promotion of corneal stroma wound healing with human epidermal growth factor prepared from recombinant DNA” (University of Louisville Foundation, priority 1987, dated 1990).

How the values were obtained:
open wounds = settings: topical application; mice; cited from earlier work
blister wounds = settings: mEGF in saline solution once daily until healed; human subjects; cited from earlier work
interscapular incision [1] = assay: Tensile strength of incisions treated with repeated doses of EGF-saline; assay type: in vivo, rats
Procedure: Interscapular incisions were created as above on the backs of 22 rats and a perforated catheter was placed in the base of the incision and brought out through a separate stab incision at the base of the neck. Incisions of half the rats were treated three times a day for five days by rapidly injecting 200 μl of PBS containing 50 μg of hEGF, while the control rats received injections of PBS. Seven and 14 days after surgery, rats were sacrificed by carbon dioxide asphixiation, incisions and surrounding tissue were removed as above. Three strips were taken from tensile strength measurement from each incision.
An interscapular incision was made on the back of each rat and a perforated catheter was placed in the base of the incision and brought out through a separate stab wound and the incision was sutured. Incisions were treated three times a day for five days by injecting 200 μl of saline alone or containing 50 μg EGF. After seven and fourteen days, rats were sacrificed and triplicate tensile strength measurements were determined for each rat. Values are mean and standard deviation and n is the number of tensile strength measurements.

interscapular incision [2] = assay: Tensile strength of incisions treated with a single dose of EGF-saline; assay type: in vivo, rats; settings: after 10 days; single dose in saline
Procedure: Adult male Sprague Dawley rats weighing 230-250 g were anesthetized and a single interscapular incision 5 cm long penetrating the panniculus carnosus was created in the dorsal midline. Equal amounts of hEGF (10 μg) formulated in one of the four formulations were placed in the base of individual incision tracts, and then sutured. At daily intervals, rats were sacrificed by carbon dioxide inhalation and incisions with 3 mm of surrounding nonwounded skin were excised to the underlying muscle. Total amounts of hEGF present in incision areas were calculated by measuring residual ^125 I-hEGF present in samples using a Beckman 4000 gamma scintillation counter, and were expressed as percentages of original hEGF applied to incisions. At each time point, the average amount of hEGF retained in the incision for each formulation was calculated from the values from three rats. From each incision, three test strips approximately 5 mm wide were cut perpendicular to the original incision, one from the middle and two from each end. Measurements of incision strength were conducted using a Unite-O-Matic FM-20 tensiometer instrument. For each formulation, the mean tensile strength was calculated from the mean value of all incision measurements in the group. […]

[3] = tested on: capillary growth in rabbit cornea; assay: Rabbit cornea angiogenesis assay with hEGF EVA pellets; assay type: in vivo, rabbits; design: key to Angiogenic Response: 4+: profuse capillary growth; 3+: extensive capillary growth; 2+: moderate capillary growth; 1+: very little capillary growth; 0: no capillary growth
Procedure: hEGF was dilated in sterile PBS to concentrations of 500, 100, 20, 4 and 0.8 μg/ml and lyophilized. Ethylene-vinyl acetate (EVA) copolymer beads were mixed with methylene chloride to produce a 10% w/v casting solution. Approximately 0.1 ml of casting solution was added to the lyophilized hEGF and mixed. […]
The pellets were implanted into intrasomal corneal pockets located 1.5 mm from the limbus in the eyes of pigmented adult rabbits. […]

Substance	healing of open wounds (open wounds)	acceleration in the growth of the epidermal layer (blister wounds)	average increase in strength over saline treated incisions (interscapular incision [1]; 7 days after surgery)	microscopic appearance of incision tract (interscapular incision [1]; 7 days after surgery)	tensile strength vs saline-treated incisions (interscapular incision [1]; fourteen days after surgery)	tensile strength vs PBS-treated or simply sutured incisions (interscapular incision [2])	Angiogenic Response ([3]; 0.04 mg/pellet (so in the source), EVA pellet)	Angiogenic Response ([3]; 0.18 mg/pellet (so in the source), EVA pellet)	Angiogenic Response ([3]; 1.1 mg/pellet (so in the source), EVA pellet)	Angiogenic Response ([3]; 6.2 mg/pellet (so in the source), EVA pellet)	Angiogenic Response ([3]; 25 mg/pellet (so in the source), EVA pellet in rabbit corneal pocket)	angiogenesis in rabbit cornea assay ([3]; sustained release from EVA pellets)
mEGF: epidermal growth factor obtained from mouse salivary glands (NSYPGCPSSYDGYCLNGGVCMHIESLDSYTCNCVIGYSGDRCQTRDLRWWELR; not fully specified; Epidermal growth factor; UniProt P01132 977-1029, looked up)	promote healing in various degrees	No acceleration										
hEGF: human epidermal growth factor polypeptide expressed from plasmid pYαEGF-23 in yeast strain AB103 and purified			35%	very narrow with closely opposed edges	not different	not significantly stronger	1+	1+	2+	3+	4+	induced angiogenesis
